Patent publication US12286455B2, “Anthelmintic depsipeptide compounds” (BOEHRINGER INGELHEIM ANIMAL HEALTH USA INC., priority 2015, dated 2025)
In brackets after ≈: the same amount, converted by molar mass. Read-outs that look alike come from different tables or passages of the source.

Experiments:
[1] = amide bond, 24-membered ring, BOP-Cl/DIEA
Haemonchus contortus = test: Method A: development of L1 Haemonchus contortus larvae in microtitre plate; conditions: 96 h; for EC50: read-out: median EC50
Experimental: Twenty L1 Haemonchus contortus larvae were added to wells of a microtitre plate containing a nutrient medium and the test compound in DMSO. An analysis was conducted at 4 days to determine the extent of development of the larvae. Larvae exposed to DMSO alone served as controls. The potencies of the compounds were evaluated in an MIC90 and/or EC50 format.

[2] = tested on: Microfilaria of Dirofilaria immitis; test: Method B: survival of microfilaria of Dirofilaria immitis in microtitre plate; conditions: 72 h, read-out: median EC50, survival of microfilaria at 72 hours
[3] = the molecule shown is the open-chain precursor; amide bond; 24-membered ring; BOP-Cl/DIEA; DCM; 58.9 mM

Compound	EC50 [2] [nM]	EC50 (Haemonchus contortus) [nM]	also measured
CC(C)C[C@H]1C(=O)O[C@H](Cc2ccc(C(C)(C)C)cc2)C(=O)N(C)[C@@H](CC(C)(C)F)C(=O)O[C@H](C)C(=O)N(C)[C@@H](CC(C)C)C(=O)O[C@H](Cc2ccc(C(C)(C)C)cc2)C(=O)N(C)[C@@H](CC(C)(C)F)C(=O)O[C@H](C)C(=O)N1C [Compound 18-19]	< 100		ring closure, yield after HPLC ([1]; from H-MeLeu-dPhLac(4-tBu)-MeLeu(4-F)-dLac-MeLeu-dPhLac(4-tBu)-MeLeu(4-F)-dLac-OH, DCM, 0.9 mM): 13%; MIC90 (Haemonchus contortus; read-out: median MIC90): 1 to 10 µM (≈ 1.1 to 11 µg/mL)
C[C@H]1OC(=O)[C@H](CC(C)(C)C)N(C)C(=O)[C@@H](Cc2ccc(C3CCOCC3)cc2)OC(=O)[C@H](CC(C)(C)F)N(C)C(=O)[C@@H](C)OC(=O)[C@H](CC(C)(C)C)N(C)C(=O)[C@@H](Cc2ccc(C3CCOCC3)cc2)OC(=O)[C@H](CC(C)(C)F)N(C)C1=O [Compound 7-32]	< 100	< 100	ring closure, yield after HPLC ([1]; from H-MeLeu(4-F)-dPhLac(4-(oxan-4-yl))-MeLeu(4-Me)-dLac-MeLeu(4-F)-dPhLac(4-(oxan-4-yl))-MeLeu(4-Me)-dLac-OH, DCM, 25.0 mM): 61%
CC(C)C[C@H]1C(=O)O[C@H](Cc2ccc(C3CCOCC3)cc2)C(=O)N(C)[C@@H](CC(C)C)C(=O)O[C@H](C)C(=O)N(C)[C@@H](CC(C)C)C(=O)O[C@H](Cc2ccc(C3CCOCC3)cc2)C(=O)N(C)[C@@H](CC(C)C)C(=O)O[C@H](C)C(=O)N1C [Compound 7-27]	< 100	1000 to 10000	ring closure, yield after HPLC ([1]; from H-MeLeu-dPhLac(4-oxan-4-yl)-MeLeu-dLac-MeLeu-dPhLac(4-oxan-4-yl)-MeLeu-dLac-OH?, 25.0 °C): 13%
CC(C)C[C@H]1C(=O)O[C@H](C)C(=O)N(C)[C@@H](CC(C)(C)F)C(=O)O[C@H](Cc2ccc(N3CCOCC3)cc2)C(=O)N(C)[C@@H](CC(C)C)C(=O)O[C@H](C)C(=O)N(C)[C@@H](CC(C)(C)F)C(=O)O[C@H](Cc2ccc(N3CCOCC3)cc2)C(=O)N1C [Compound 6-18]		100 to 1000	ring closure, yield after HPLC ([1]; from H-MeLeu(4-F)-dPhLac(4-morpholinyl)-MeLeu-dLac-MeLeu(4-F)-dPhLac(4-morpholinyl)-MeLeu-dLac-OH?, DCM, 1.7 mM, 25.0 °C): 23%
H-MeLeu(4-F)-dPhLac(4-tBu)-MeLeu(4-Me)-dLac-MeLeu(4-F)-dPhLac(4-tBu)-MeLeu(4-Me)-dLac-OH			ring closure, isolated yield [3]: 55%
CC(C)C[C@H]1C(=O)O[C@H](C)C(=O)N(C)[C@@H](CC(C)(C)F)C(=O)O[C@H](Cc2ccc(C(F)(F)F)cc2)C(=O)N(C)[C@@H](CC(C)C)C(=O)O[C@H](C)C(=O)N(C)[C@@H](CC(C)(C)F)C(=O)O[C@H](Cc2ccc(C(F)(F)F)cc2)C(=O)N1C [Compound 4-18]	< 100	100 to 1000	ring closure, yield after HPLC ([1]; from H-MeLeu(4-F)-dPhLac(4-CF3)-MeLeu-dLac-MeLeu(4-F)-dPhLac(4-CF3)-MeLeu-dLac-OH?, DCM, 5.2 mM, 25.0 °C): 34%
C[C@H]1OC(=O)[C@H](CC(C)(C)C)N(C)C(=O)[C@@H](Cc2ccc(OC(F)(F)F)cc2)OC(=O)[C@H](CC(C)(C)F)N(C)C(=O)[C@@H](C)OC(=O)[C@H](CC(C)(C)C)N(C)C(=O)[C@@H](Cc2ccc(OC(F)(F)F)cc2)OC(=O)[C@H](CC(C)(C)F)N(C)C1=O [Compound 5-32]	100 to 1000	100 to 1000	ring closure, yield after HPLC ([1]; from H-MeLeu(4-F)-dPhLac(4-OCF3)-MeLeu(4-Me)-dLac-MeLeu(4-F)-dPhLac(4-OCF3)-MeLeu(4-Me)-dLac-OH, DCM, 4.17 mM): 59%
CC(C)C[C@H]1C(=O)O[C@H](C)C(=O)N(C)[C@@H](CC(C)(C)F)C(=O)O[C@H](Cc2ccc(C3CCOCC3)cc2)C(=O)N(C)[C@@H](CC(C)C)C(=O)O[C@H](C)C(=O)N(C)[C@@H](CC(C)(C)F)C(=O)O[C@H](Cc2ccc(C3CCOCC3)cc2)C(=O)N1C [Compound 7-18]	< 100	1000 to 10000	ring closure, yield after HPLC ([1]; from H-MeLeu(4-F)-dPhLac(4-(oxan-4-yl))-MeLeu-dLac-MeLeu(4-F)-dPhLac(4-(oxan-4-yl))-MeLeu-dLac-OH, DCM, 10.75 mM, 0.0 °C): 60%
